Laboratory results published in US8933230B2, “Phosphorus-containing group-substituted quinoline, its preparation process, medical composition containing the compounds and application” (priority 2011, dated 2015).

Assays:
Experiment in all cases: KinomeScan kinase panel
Assay type in all cases: binding
[1] = target: T1, MAP3K15 (Homo sapiens, UniProt Q6ZN16)
T1 construct: purchased DiscoveRx Corporation (KinomeScan)
Outline: (§1)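 Single-point screen: 1000 nM compound, KinomeScan panel of 442 kinases.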

[2] = target: T2, ABL1(Q252H)-nonphosphorylated (Homo sapiens, UniProt P00519, Q252H)
T2 construct: purchased DiscoveRx Corporation (KinomeScan)
Outline: as §1

[3] = target: T3, CSR1 (Homo sapiens, UniProt O95747)
T3 construct: purchased DiscoveRx Corporation (KinomeScan panel)
Outline: as §1

[4] = target: T4, TYRO3 (Homo sapiens, UniProt Q06418)
T4 construct: purchased DiscoveRx Corporation (KinomeScan service)
Outline: as §1

[5] = target: T5, CAMKK1 (Homo sapiens, UniProt Q8N5S9)
T5 construct: purchased DiscoveRx Corporation (KinomeScan)
Outline: as §1

[6] = target: T6, BMPR1B (Homo sapiens, UniProt O00238)
T6 construct: purchased DiscoveRx Corporation (KinomeScan)
Outline: as §1

[7] = target: T7, ABL1(F317I)-phosphorylated (Homo sapiens, UniProt P00519, F317I)
T7 construct: purchased DiscoveRx Corporation (KinomeScan)
Outline: as §1

[8] = target: T8, YSK4 (Homo sapiens, UniProt Q56UN5)
T8 construct: purchased DiscoveRx Corporation (KinomeScan service)
Outline: as §1

[9] = target: T9, MYO3A (Homo sapiens, UniProt Q8NEV4)
T9 construct: purchased DiscoveRx Corporation (KinomeScan)
Outline: as §1

[10] = target: T10, MARK1 (Homo sapiens, UniProt Q9P0L2)
T10 construct: purchased DiscoveRx Corporation (KinomeScan)
Outline: as §1

[11] = target: T11, MST1R (Homo sapiens, UniProt Q04912)
T11 construct: purchased DiscoveRx Corporation (KinomeScan)
Outline: as §1

[12] = target: T12, AMPK-alpha2 (Homo sapiens, UniProt P54646)
T12 construct: purchased DiscoveRx Corporation (KinomeScan)
Outline: as §1

[13] = target: T13, CDK5 (Homo sapiens, UniProt Q00535)
T13 construct: purchased DiscoveRx Corporation (KinomeScan)
Outline: as §1

[14] = target: T14, GRK7 (Homo sapiens, UniProt Q8WTQ7)
T14 construct: purchased DiscoveRx Corporation (KinomeScan)
Outline: as §1

[15] = target: T15, FGFR3(G697C) (Homo sapiens, UniProt P22607, G697C)
T15 construct: purchased DiscoveRx Corporation (KinomeScan)
Outline: as §1

[16] = target: T16, ULK1 (Homo sapiens, UniProt O75385)
T16 construct: purchased DiscoveRx Corporation (KinomeScan service)
Outline: as §1

[17] = target: T17, EPHA8 (Homo sapiens, UniProt P29322)
T17 construct: purchased DiscoveRx Corporation (KinomeScan)
Outline: as §1

[18] = target: T18, MAP3K1 (Homo sapiens, UniProt Q13233)
T18 construct: purchased DiscoveRx Corporation (KinomeScan)
Outline: as §1

[19] = target: T19, IKK-beta (Homo sapiens, UniProt O14920)
T19 construct: purchased DiscoveRx Corporation (KinomeScan)
Outline: as §1

[20] = target: T20, MAP3K2 (Homo sapiens, UniProt Q9Y2U5)
T20 construct: purchased DiscoveRx Corporation (KinomeScan)
Outline: as §1

[21] = test system: TRPM6
Outline: as §1

[22] = target: T21, BMX (Homo sapiens, UniProt P51813)
T21 construct: purchased DiscoveRx Corporation (KinomeScan)
Outline: as §1

[23] = target: T22, TRKC (Homo sapiens, UniProt Q16288)
T22 construct: purchased DiscoveRx Corporation (KinomeScan)
Outline: as §1

[24] = target: T23, KIT(L576P) (Homo sapiens, UniProt P10721, L576P)
T23 construct: purchased DiscoveRx Corporation (KinomeScan)
Outline: as §1

[25] = target: T24, PRKCE (Homo sapiens, UniProt Q02156)
T24 construct: purchased DiscoveRx Corporation (KinomeScan)
Outline: as §1

[26] = target: T25, IRAK3 (Homo sapiens, UniProt Q9Y616)
T25 construct: purchased DiscoveRx Corporation (KinomeScan)
Outline: as §1

[27] = target: T26, P38-delta (Homo sapiens, UniProt O15264)
T26 construct: purchased DiscoveRx Corporation (KinomeScan panel)
Outline: as §1

[28] = target: T27, SYK (Homo sapiens, UniProt P43405)
T27 construct: purchased DiscoveRx Corporation (KinomeScan)
Outline: as §1

[29] = target: T28, STK35 (Homo sapiens, UniProt Q8TDR2)
T28 construct: purchased DiscoveRx Corporation (KinomeScan)
Outline: as §1

[30] = target: T29, EGFR(L747-T751del,Sins) (Homo sapiens, UniProt P00533, DEL747-750/T751S)
T29 construct: purchased DiscoveRx Corporation (KinomeScan)
Outline: as §1

[31] = target: T30, PHKG2 (Homo sapiens, UniProt P15735)
T30 construct: purchased DiscoveRx Corporation (KinomeScan)
Outline: as §1

[32] = target: T31, WEE1 (Homo sapiens, UniProt P30291)
T31 construct: purchased DiscoveRx Corporation (KinomeScan service)
Outline: as §1

[33] = target: T32, PIK4CB (Homo sapiens, UniProt Q9UBF8)
T32 construct: purchased DiscoveRx Corporation (KinomeScan)
Outline: as §1

[34] = target: T33, RSK4(Kin.Dom.2-C-terminal) (Homo sapiens, UniProt Q9UK32)
T33 construct: Kin.Dom.2; purchased DiscoveRx Corporation (KinomeScan)
Outline: as §1

[35] = target: T34, ERBB2 (Homo sapiens, UniProt P04626)
T34 construct: purchased DiscoveRx Corporation (KinomeScan)
Outline: as §1

T21 sequence (P51813 whole entry): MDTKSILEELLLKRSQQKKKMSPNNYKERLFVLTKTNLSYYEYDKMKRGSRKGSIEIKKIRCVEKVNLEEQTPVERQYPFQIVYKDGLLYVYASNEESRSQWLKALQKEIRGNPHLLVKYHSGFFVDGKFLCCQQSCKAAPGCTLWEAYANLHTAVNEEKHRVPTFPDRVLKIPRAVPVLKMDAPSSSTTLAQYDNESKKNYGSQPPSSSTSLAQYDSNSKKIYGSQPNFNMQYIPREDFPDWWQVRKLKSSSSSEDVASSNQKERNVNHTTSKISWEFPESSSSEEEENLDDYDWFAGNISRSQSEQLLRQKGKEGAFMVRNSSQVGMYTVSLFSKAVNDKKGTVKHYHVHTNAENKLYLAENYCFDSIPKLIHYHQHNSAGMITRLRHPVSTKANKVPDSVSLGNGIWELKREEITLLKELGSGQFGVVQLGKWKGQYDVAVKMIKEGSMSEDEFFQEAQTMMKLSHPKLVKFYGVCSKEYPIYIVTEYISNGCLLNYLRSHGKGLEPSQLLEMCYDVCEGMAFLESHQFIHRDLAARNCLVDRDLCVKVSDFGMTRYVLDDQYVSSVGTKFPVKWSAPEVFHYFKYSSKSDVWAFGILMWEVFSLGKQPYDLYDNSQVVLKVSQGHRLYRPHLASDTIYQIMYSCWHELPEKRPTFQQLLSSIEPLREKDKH
T26 sequence (O15264 whole entry): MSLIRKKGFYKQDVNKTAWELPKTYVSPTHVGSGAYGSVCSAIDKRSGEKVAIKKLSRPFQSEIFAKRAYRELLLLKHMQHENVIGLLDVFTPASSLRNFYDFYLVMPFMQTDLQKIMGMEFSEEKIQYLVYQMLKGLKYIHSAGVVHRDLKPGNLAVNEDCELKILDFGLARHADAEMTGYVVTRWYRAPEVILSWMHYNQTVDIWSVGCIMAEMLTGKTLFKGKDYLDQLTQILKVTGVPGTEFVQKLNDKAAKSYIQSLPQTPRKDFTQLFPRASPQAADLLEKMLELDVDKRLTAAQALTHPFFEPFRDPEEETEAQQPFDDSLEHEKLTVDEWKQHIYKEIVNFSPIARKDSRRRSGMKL
T5 sequence (Q8N5S9 whole entry): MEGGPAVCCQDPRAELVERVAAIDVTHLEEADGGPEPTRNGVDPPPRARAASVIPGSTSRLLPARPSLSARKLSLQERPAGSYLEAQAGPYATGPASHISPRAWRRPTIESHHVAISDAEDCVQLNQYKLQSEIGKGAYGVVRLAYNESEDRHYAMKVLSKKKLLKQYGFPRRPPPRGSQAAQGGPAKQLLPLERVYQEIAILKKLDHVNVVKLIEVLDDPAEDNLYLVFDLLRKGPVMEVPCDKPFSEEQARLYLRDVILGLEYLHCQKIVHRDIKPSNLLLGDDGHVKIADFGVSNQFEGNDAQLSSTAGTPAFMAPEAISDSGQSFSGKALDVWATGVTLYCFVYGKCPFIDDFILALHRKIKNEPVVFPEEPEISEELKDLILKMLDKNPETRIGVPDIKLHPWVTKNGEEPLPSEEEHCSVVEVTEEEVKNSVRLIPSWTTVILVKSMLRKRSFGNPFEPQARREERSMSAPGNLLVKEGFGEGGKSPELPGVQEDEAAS
T25 sequence (Q9Y616 whole entry): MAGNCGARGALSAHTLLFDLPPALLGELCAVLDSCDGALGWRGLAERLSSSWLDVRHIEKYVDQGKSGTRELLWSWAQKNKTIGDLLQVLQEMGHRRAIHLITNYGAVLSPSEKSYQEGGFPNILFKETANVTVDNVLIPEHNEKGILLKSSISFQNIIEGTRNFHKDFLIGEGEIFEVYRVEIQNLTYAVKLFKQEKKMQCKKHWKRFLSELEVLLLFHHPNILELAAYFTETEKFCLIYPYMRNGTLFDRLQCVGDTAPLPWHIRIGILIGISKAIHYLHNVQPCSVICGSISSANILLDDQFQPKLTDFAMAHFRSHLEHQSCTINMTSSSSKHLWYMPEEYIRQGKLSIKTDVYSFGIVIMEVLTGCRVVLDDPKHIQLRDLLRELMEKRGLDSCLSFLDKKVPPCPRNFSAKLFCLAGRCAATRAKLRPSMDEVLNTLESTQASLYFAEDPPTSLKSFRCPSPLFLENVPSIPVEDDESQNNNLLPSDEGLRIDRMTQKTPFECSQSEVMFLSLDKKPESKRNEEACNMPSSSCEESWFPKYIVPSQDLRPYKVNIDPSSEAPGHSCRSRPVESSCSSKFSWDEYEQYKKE
T14 sequence (Q8WTQ7 whole entry): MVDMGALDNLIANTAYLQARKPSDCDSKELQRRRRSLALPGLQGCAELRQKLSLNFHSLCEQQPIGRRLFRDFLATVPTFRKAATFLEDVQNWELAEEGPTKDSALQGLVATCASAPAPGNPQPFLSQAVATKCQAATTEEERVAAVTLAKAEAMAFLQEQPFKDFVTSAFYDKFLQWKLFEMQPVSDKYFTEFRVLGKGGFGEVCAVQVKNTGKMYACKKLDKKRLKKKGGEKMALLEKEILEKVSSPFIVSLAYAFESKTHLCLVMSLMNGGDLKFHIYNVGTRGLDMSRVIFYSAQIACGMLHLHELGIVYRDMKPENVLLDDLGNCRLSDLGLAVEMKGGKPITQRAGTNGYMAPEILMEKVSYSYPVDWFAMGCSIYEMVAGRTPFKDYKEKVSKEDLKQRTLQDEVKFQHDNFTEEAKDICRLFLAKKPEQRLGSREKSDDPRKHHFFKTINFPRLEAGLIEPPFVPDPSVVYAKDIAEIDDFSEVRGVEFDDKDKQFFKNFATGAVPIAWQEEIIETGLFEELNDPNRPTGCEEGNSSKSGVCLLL
T1 sequence (Q6ZN16 whole entry): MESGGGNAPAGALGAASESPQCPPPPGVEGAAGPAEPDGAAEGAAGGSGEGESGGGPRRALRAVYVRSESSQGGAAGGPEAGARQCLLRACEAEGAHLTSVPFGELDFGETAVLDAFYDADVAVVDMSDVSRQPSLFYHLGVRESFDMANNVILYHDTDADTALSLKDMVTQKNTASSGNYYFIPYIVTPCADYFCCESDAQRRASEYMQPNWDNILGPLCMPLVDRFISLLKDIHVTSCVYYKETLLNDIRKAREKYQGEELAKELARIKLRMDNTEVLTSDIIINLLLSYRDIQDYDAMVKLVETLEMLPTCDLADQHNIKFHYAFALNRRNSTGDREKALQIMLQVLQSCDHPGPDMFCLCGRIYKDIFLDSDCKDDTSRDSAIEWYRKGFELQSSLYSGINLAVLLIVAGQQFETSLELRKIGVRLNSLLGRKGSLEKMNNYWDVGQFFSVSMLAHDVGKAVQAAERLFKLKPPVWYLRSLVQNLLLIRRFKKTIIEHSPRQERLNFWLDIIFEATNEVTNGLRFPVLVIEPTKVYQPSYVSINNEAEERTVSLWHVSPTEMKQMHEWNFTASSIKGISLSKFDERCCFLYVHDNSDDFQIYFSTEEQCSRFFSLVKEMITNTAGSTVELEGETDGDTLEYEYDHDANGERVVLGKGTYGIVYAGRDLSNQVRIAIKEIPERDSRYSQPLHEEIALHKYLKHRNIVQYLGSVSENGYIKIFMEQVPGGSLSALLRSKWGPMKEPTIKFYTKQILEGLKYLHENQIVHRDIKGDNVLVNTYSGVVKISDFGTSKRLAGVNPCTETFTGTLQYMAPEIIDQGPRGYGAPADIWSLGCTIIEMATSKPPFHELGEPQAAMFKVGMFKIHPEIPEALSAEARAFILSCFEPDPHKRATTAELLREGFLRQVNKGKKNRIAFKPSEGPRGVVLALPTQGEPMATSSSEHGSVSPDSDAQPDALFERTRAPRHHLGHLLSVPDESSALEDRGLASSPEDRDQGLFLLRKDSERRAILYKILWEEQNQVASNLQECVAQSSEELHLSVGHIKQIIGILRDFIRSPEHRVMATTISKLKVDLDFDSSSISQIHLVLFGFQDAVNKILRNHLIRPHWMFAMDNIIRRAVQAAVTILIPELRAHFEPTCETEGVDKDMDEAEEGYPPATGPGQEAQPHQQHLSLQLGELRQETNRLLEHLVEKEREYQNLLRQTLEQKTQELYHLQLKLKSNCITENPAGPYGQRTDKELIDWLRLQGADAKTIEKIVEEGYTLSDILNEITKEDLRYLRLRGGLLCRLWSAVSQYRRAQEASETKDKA
T10 sequence (Q9P0L2 whole entry): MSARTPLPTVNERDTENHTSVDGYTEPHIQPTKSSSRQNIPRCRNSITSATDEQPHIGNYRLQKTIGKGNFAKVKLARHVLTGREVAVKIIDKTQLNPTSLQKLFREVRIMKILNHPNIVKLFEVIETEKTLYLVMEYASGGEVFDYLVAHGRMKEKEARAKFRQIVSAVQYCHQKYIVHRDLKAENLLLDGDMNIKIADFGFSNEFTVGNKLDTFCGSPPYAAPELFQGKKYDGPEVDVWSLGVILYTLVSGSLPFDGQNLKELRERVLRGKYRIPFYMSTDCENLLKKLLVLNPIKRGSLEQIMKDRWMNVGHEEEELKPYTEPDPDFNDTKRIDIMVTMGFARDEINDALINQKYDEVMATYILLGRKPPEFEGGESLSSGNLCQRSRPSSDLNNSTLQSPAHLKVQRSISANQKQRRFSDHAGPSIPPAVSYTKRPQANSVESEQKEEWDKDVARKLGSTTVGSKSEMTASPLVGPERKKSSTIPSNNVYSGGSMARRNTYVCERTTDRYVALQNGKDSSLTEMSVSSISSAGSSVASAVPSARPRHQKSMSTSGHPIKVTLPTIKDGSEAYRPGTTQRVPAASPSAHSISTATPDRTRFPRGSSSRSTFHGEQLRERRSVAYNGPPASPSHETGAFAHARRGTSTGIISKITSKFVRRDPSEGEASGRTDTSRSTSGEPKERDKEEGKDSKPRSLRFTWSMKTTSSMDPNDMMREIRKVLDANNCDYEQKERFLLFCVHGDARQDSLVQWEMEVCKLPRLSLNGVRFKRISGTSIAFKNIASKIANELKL

`CCOP(=O)(CN1CCC(COc2cc3nccc(Oc4ccc(NC(=O)C5(C(=O)Nc6ccc(F)cc6)CC5)cc4F)c3cc2OC)CC1)OCC` [Example 10, N1-[4-[[7-[[1-(diethoxyphosphorylmethyl)-4-piperidinyl]methoxyl]-6-methoxyl-4-quinolyl]oxyl]-3-fluorophenyl]-N1′-(4-fluorophenyl)cyclopropane-1,1-dicarboxamide] was tested, and the “% Ctrl@1000 nM” value [1] was 100 % Ctrl, the “% Ctrl@1000 nM” value [2] was 2.4 % Ctrl and the “% Ctrl@1000 nM” value [3] was 96 % Ctrl. The “% Ctrl@1000 nM” value [4] was 41 % Ctrl, the “% Ctrl@1000 nM” value [5] was 32 % Ctrl and the “% Ctrl@1000 nM” value [6] was 100 % Ctrl. The “% Ctrl@1000 nM” value [7] was 70 % Ctrl, the “% Ctrl@1000 nM” value [8] was 1.7 % Ctrl and the “% Ctrl@1000 nM” value [9] was 93 % Ctrl. The “% Ctrl@1000 nM” value [10] was 100 % Ctrl, the “% Ctrl@1000 nM” value [11] was 4 % Ctrl and the “% Ctrl@1000 nM” value [12] was 100 % Ctrl. For the same molecule, the “% Ctrl@1000 nM” value [13] was 100 % Ctrl, the “% Ctrl@1000 nM” value [14] was 100 % Ctrl and the “% Ctrl@1000 nM” value [15] was 100 % Ctrl. The “% Ctrl@1000 nM” value [16] was 100 % Ctrl, the “% Ctrl@1000 nM” value [17] was 0.15 % Ctrl and the “% Ctrl@1000 nM” value [18] was 80 % Ctrl. For the same molecule, the “% Ctrl@1000 nM” value [19] was 100 % Ctrl, the “% Ctrl@1000 nM” value [20] was 100 % Ctrl and the “% Ctrl@1000 nM” value [21] was 86 % Ctrl. The “% Ctrl@1000 nM” value [22] was 92 % Ctrl, the “% Ctrl@1000 nM” value [23] was 2.2 % Ctrl and the “% Ctrl@1000 nM” value [24] was 0 % Ctrl. The “% Ctrl@1000 nM” value [25] was 100 % Ctrl, the “% Ctrl@1000 nM” value [26] was 33 % Ctrl and the “% Ctrl@1000 nM” value [27] was 53 % Ctrl. The “% Ctrl@1000 nM” value [28] was 58 % Ctrl, the “% Ctrl@1000 nM” value [29] was 82 % Ctrl and the “% Ctrl@1000 nM” value [30] was 72 % Ctrl. For the same molecule, the “% Ctrl@1000 nM” value [31] was 96 % Ctrl, the “% Ctrl@1000 nM” value [32] was 100 % Ctrl and the “% Ctrl@1000 nM” value [33] was 100 % Ctrl. For the same molecule, the “% Ctrl@1000 nM” value [34] was 91 % Ctrl and the “% Ctrl@1000 nM” value [35] was 96 % Ctrl.
